Experiment: pH vs. solution stability of phosphono oxylmethyl prodrugs
Assay type: physicochemical

Substance | Solubility (pH of solution 5.22) | Solubility (pH of solution 6.22) | Solubility (pH of solution 7.22) | Solubility (pH of solution 5.45) | Solubility (pH of solution 6.45) | Solubility (pH of solution 7.45)
phosphono oxylmethyl aceclidine | Best | Fair | Poor |  |  | 
phosphono oxymethyl talsaclidine |  |  |  | Best | Fair | Poor
